Data from patent US6603046B1, “Bis-aromatic a,β-unsaturated ketones” (Lica Pharmaceuticals A/S, priority 1992, dated 2003).
Values after ≈ are worked out from the molar mass of the structure shown. Like-named read-outs stand apart in the source and are kept apart here.

How the values were obtained:
L. pneumophilia = test: microbe, parasite or virus in culture; type: cell-based; conditions: Legionella pneumophila
P. falciparum = P. falciparum growth in vitro (Table 14.1, strain not stated); type: cell-based; conditions: Plasmodium falciparum, read-out: inhibition of malaria parasites (middle figure) (converted)
Procedure, shortened: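 Parasitized erythrocytes (~1% parasitemia) in RPMI with graded compound concentrations, cultured 48 h. 3H-hypoxanthine added for the final 24 h. Growth measured as 3H-hypoxanthine incorporation into parasite DNA by liquid scintillation.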

M. bovis = type: cell-based; conditions: n = 8
[1] = Absorption study in rats, oral, serum concentration (Example 20); type: in vivo
Experimental: The absorption pattern and pharmaco-kinetics of licochalcone A in rats given by oral route were determined compared with pharmacokinetics of licochalcone A in rats given intravenously.
Number of rats: 4 for each group […]
Route: Oral, adminitered once.
Sample: 2 ml of blood was drawn 4 times from each rat.
Serum or plasma was diluted with one part of acetonitrile, left for 15 min at 4° C., and centrifugated for 3 min at 10,000 g. An aliquot of the supernatant was chromatographed at 37° C. by HPLC over Spherisorb ODS-2 (5 μm, 120×4.5 mm, Phase Separation LTD, UK) using acetonitrile aqueous acetic acid, 2%, (1:1) as an eluent, flow rate 1.5 ml/min, and UV detection (370 nm and 254 nm).

[2] = test system: Staphylococcus aureus ATCC 25923; test: MIC on control strain, aerobic and microaerophilic (Example 18); type: cell-based; conditions: ATCC25923, 2 h, 2 hours incubation
Experimental: Staphylococcus aureus ATCC 25923 was used as control strain. The Helicobacter pylori strains were subcultured on chocolate agar plates with cysteine in a microaerophilic atmosphere at 37° C. for 72 hours and kept frozen at −80° C. until assayed.
The MIC rows were incubated under microaerophilic conditions for two hours. Hereafter aliquots of 10 μl were taken from all dilution steps and plated on chocolate agar with cysteine and incubated in a microaerophilic atmosphere for 72 hours at 37° C. The control strain Staphylococcus aureus was incubated both aerobically and microaerophilically at 37° C. for 24 hours. All plates were read by the Karber method.

Gram positive cocci = test: MIC, macrodilution (Example 17), text summary; type: cell-based

C=CC(C)(C)c1cc(/C=C/C(=O)c2ccc(O)cc2)c(OC)cc1O [Licochalcone A, licochalcone A]
MIC (L. pneumophilia; L. pneumophilia serogr. 1, 4 strains): 1 to 4 µg/mL (≈ 2.96 to 11.8 µM) | MIC (L. pneumophilia; L. pneumophilia serogr. 2-7, 6 strains): 2 to 4 µg/mL (≈ 5.91 to 11.8 µM) | MIC (L. pneumophilia; read-out: MIC-values, clinical isolates): 1 to 4 µg/mL (≈ 2.96 to 11.8 µM) | inhibition at 0.5 µg/mL (P. falciparum; 0.5 μg/ml): 39% | inhibition at 1 µg/mL (P. falciparum; 1 μg/ml): 69% | inhibition at 5 µg/mL (P. falciparum; 5 μg/ml): 98% | inhibition at 10 µg/mL (P. falciparum; 10 μg/ml): 98% | meanMIC (M. bovis): meanMIC = 15.7 μg/ml | rangeMIC (M. bovis): rangeMIC = 10-20 μg/ml (n = 8) | concentration in serum ([1]; 4 hours after oral administration, 1000 mg per kg as printed): 160 ng/mL | concentration at 24 h ([1]; rat, serum, oral, 1000 mg per kg, after 24 hours, detection limit of the assay): < 50 ng/mL | concentration at 4 h ([1]; rat, serum, po, 1000 mg per kg, 4 hours after oral administration, 1000 mg per kg as printed): 140 ng/mL | MIC ([2]; microaerophilic conditions): > 500 µg/mL | MIC ([2]; normal atmosphere): 4 µg/mL (≈ 11.8 µM) | MIC (Gram positive cocci): 4000 to 8000 µg/mL (≈ 11800 to 23600 µM)
